The test system of the first assay is Clonic Seizures Caused by Pentylenetetrazole in Rats. Kind of assay: Protection against clonic seizures caused by pentylenetetrazole in rats. In kind it is in vivo. The following applies: Rattus norvegicus; dose 25.0 mg/kg, oral or i.p.; pentylenetetrazole 23 mg/kg i.v. at 30 or 60 min; read-out: % of Rats Protected. As for the experimental part: The anti-anxiety and anticonvulsant properties of the novel compounds of the present invention have been established in a test which indicates anxiolytic and antiepileptic activity by the measure of protection from convulsions resulting from the administration of pentylenetetrazole. Single or graded dose levels of the test compounds were administered orally or intraperitoneally in a 2% starch vehicle, containing 0.5% v/v polyethylene glycol and one drop of Polysorbate 80 to groups of at least 4 rats. At 30 or 60 minutes, the rats were treated intravenously with pentylenetetrazole at a dose of 23 mg/kg of body weight. This dose is estimated to cause clonic seizures in 99% of unprotected rats. It has been reported [R. T. Hill and D. H. Tedeschi, "Animal Testing and Screening Procedures in Evaluating Psychotropic Drugs" in "An Introduction to Psychopharmacology", Eds. R. R. Rech and K. E. Moore, Raven Press, New York, pp 237-288 (1971)] that there is a high degree of correlation between antagonism of pentylenetetrazole seizures in rats and anti-anxietyor anticonvulsant effects in higher warm-blooded animals.
For `Cc1ccc(C(=O)c2cnn3c(-c4ccncc4)ccnc23)cc1` [(4-methylphenyl)[7-(4-pyridinyl)pyrazolo[1,5-a]pyrimidin-3-yl]methanone], the responders at 25 mg/kg is 50%. For `Cc1cccc(C(=O)c2cnn3c(-c4cccc(C)c4)ccnc23)c1` [(3-methylphenyl)[7-(3-methylphenyl)pyrazolo[1,5-a]pyrimidin-3-yl]methanone], the responders at 25 mg/kg was determined as 25%. On to `Cc1cnc2c(C(=O)c3ccccc3)cnn2c1-c1ccccc1` [(6-methyl-7-phenylpyrazolo[1,5-a]pyrimidin-3-yl)phenyl-methanone], for which the responders at 25 mg/kg came to 25%.

Regarding `O=C(c1cccc(C(F)(F)F)c1)c1cnn2c(-c3ccc(F)cc3)ccnc12` [[7-(4-fluorophenyl)pyrazolo[1,5-a]pyrimidin-3-yl][3-(trifluoromethyl)phenyl]methanone], the responders at 25 mg/kg was 25%. For the molecule `O=C(c1cccs1)c1cnn2c(-c3ccc(C(F)(F)F)cc3)ccnc12` [2-thienyl[7-[4-(trifluoromethyl)phenyl]pyrazolo[1,5-a]pyrimidin-3-yl]methanone], the responders at 25 mg/kg was 25%.

For a further assay, the system named is Brain-Specific Receptors of Rats. Kind of assay: Inhibition of the binding of 3H-benzodiazepine to brain-specific receptors of rats. Conditions: 3H-diazepam 1.5 nM or 3H-flunitrazepam 1.0 nM; rat cortex P2 fraction; test concentration not given. More on the design: species or system rat (Wistar).
For `Cc1ccc(C(=O)c2cnn3c(-c4ccncc4)ccnc23)cc1` [(4-methylphenyl)[7-(4-pyridinyl)pyrazolo[1,5-a]pyrimidin-3-yl]methanone], the “% Inhibition” value was found to be 19%. Same read-out and setting: with `Cc1ccc(C(=O)c2cnn3c(-c4ccccn4)ccnc23)cc1` [(4-methylphenyl)[7-(2-pyridinyl)pyrazolo[1,5-a]pyrimidin-3-yl]methanone] the figure was 13%. On to `O=C(c1ccccc1)c1cnn2c(-c3ccccn3)ccnc12` [phenyl[7-(2-pyridinyl)pyrazolo[1,5-a]pyrimidin-3-yl]methanone], for which the “% Inhibition” value is listed as 30%. Still for that read-out and setting: with `O=C(c1cccc(C(F)(F)F)c1)c1cnn2c(-c3ccncc3)ccnc12` [[7-(4-pyridinyl)pyrazolo[1,5-a]pyrimidin-3-yl][3-(trifluoromethyl)phenyl]methanone] the figure was 99%; with `Cc1cccc(C(=O)c2cnn3c(-c4cccc(C)c4)ccnc23)c1` [(3-methylphenyl)[7-(3-methylphenyl)pyrazolo[1,5-a]pyrimidin-3-yl]methanone], 75%; with `O=C(c1ccccc1)c1cnn2c(-c3cccc(F)c3)ccnc12` [[7-(3-fluorophenyl)pyrazolo[1,5-a]pyrimidin-3-yl]phenyl-methanone], 88%. As for `CC(=O)Nc1cccc(-c2ccnc3c(C(=O)c4ccccc4)cnn23)c1` [N--[3-(3-benzoylpyrazolo[1,5-a]pyrimidin-7-yl)phenyl]acetamide], the “% Inhibition” value came to 65%. For the molecule `O=C(c1cccc(C(F)(F)F)c1)c1cnn2c(-c3cccc(C(F)(F)F)c3)ccnc12` [[3-(trifluoromethyl)phenyl][7-[3-(trifluoromethyl)phenyl]pyrazolo[1,5-a]pyrimidin-3-yl]methanone], the “% Inhibition” value came to 56%. Regarding `COc1cc(OC)cc(C(=O)c2cnn3c(-c4cccnc4)ccnc23)c1` [(3,5-dimethoxyphenyl)[7-(3-pyridinyl)pyrazolo[1,5-a]pyrimidin-3-yl]methanone], the “% Inhibition” value is reported as 30%. As to `O=C(c1ccccc1)c1cnn2c(-c3cccc(Cl)c3)ccnc12` [[7-(3-chlorophenyl)pyrazolo[1,5-a]pyrimidin-3-yl]phenyl-methanone], the “% Inhibition” value worked out at 95%. Regarding `O=C(c1ccccn1)c1cnn2c(-c3ccccn3)ccnc12` [2-pyridinyl[7-(2-pyridinyl)pyrazolo[1,5-a]pyrimidin-3-yl]methanone], the “% Inhibition” value is reported as 77%. Turning to `Cc1cc(-c2cccc(C(F)(F)F)c2)n2ncc(C(=O)c3ccccc3)c2n1` [[5-Methyl-7-[3-(trifluoromethyl)phenyl]pyrazolo[1,5-a]pyrimidin-3-yl]phenyl-methanone], the “% Inhibition” value is reported as 27%. The same measure, in the same setting: the result for `O=C(c1cccc(F)c1)c1cnn2c(-c3ccc(F)cc3)ccnc12` [(3-fluorophenyl)[7-(4-fluorophenyl)pyrazolo[1,5-a]pyrimidin-3-yl]methanone] reads 52%. Regarding `Cc1cnc2c(C(=O)c3ccccc3)cnn2c1-c1ccccc1` [(6-methyl-7-phenylpyrazolo[1,5-a]pyrimidin-3-yl)phenyl-methanone], the “% Inhibition” value came out at 24%. On the same count and under the same terms, with `Cc1ccc(C(=O)c2cnn3c(-c4ccsc4)ccnc23)cc1` [(4-methylphenyl)[7-(3-thienyl)pyrazolo[1,5-a]pyrimidin-3-yl]methanone] the figure was 58%.

Consider `Cc1cc(-c2cccnc2)n2ncc(C(=O)c3ccccc3)c2n1` [[5-Methyl-7-(3-pyridinyl)pyrazolo[1,5-a]pyrimidin-3-yl]phenyl-methanone], for which the “% Inhibition” value is recorded as 15%. Take `O=C(c1ccco1)c1cnn2c(-c3ccccc3)ccnc12` [2-Furanyl(7-phenylpyrazolo[1,5-a]pyrimidin-3-yl)methanone]: the “% Inhibition” value amounted to 81%. Turning to `Cc1cc(-c2ccncc2)n2ncc(C(=O)c3ccccc3)c2n1` [[5-Methyl-7-(4-pyridinyl)pyrazolo[1,5-a]pyrimidin-3-yl]phenyl-methanone], the “% Inhibition” value is 93%. As for `O=C(c1ccccc1)c1cnn2c(-c3cccs3)ccnc12` [phenyl[7-(2-thienyl)pyrazolo[1,5-a]pyrimidin-3-yl]methanone], the “% Inhibition” value is listed as 96%.

In the case of `O=C(c1ccco1)c1cnn2c(-c3ccccc3F)ccnc12` [[7-(2-fluorophenyl)pyrazolo[1,5-a]pyrimidin-3-yl]-2-furanyl-methanone], the “% Inhibition” value was 34%. With `O=C(c1ccccc1)c1cnn2c(-c3cc(Cl)ccc3Cl)ccnc12` [[7-(2,5-dichlorophenyl)pyrazolo[1,5-a]pyrimidin-3-yl]phenyl-methanone], the “% Inhibition” value was found to be 21%. For `O=C(c1ccc(F)cc1)c1cnn2c(-c3cc[n+]([O-])cc3)ccnc12` [(4-Fluorophenyl)[7-(4-pyridinyl)pyrazolo[1,5-a]pyrimidin-3-yl]methanone, pyridine-1-oxide], the “% Inhibition” value is reported as 15%. For the molecule `O=C(c1ccccc1)c1cnn2c(-c3ccsc3)ccnc12` [phenyl[7-(3-thienyl)pyrazolo[1,5-a]pyrimidin-3-yl]methanone], the “% Inhibition” value is on record as 96%. Consider `O=C(c1ccccc1)c1cnn2c(-c3cc(C(F)(F)F)ccc3Cl)ccnc12` [[7-[2-chloro-5-(trifluoromethyl)phenyl]pyrazolo[1,5-a]pyrimidin-3-yl]phenyl-methanone], for which the “% Inhibition” value amounted to 86%. Regarding `O=C(c1cccs1)c1cnn2c(-c3ccncc3)ccnc12` [[7-(4-pyridinyl)pyrazolo[1,5-a]pyrimidin-3-yl]-2-thienyl-methanone], the “% Inhibition” value is given as 62%. Turning to `O=C(c1ccc(Cl)cc1)c1cnn2c(-c3ccc(F)cc3)ccnc12` [(4-chlorophenyl)[7-(4-fluorophenyl)pyrazolo[1,5-a]pyrimidin-3-yl]methanone], the “% Inhibition” value was determined as 16%. Turning to `O=C(c1cccc(C(F)(F)F)c1)c1cnn2c(-c3ccccc3)ccnc12` [(7-phenylpyrazolo[1,5-a]pyrimidin-3-yl)[3-(trifluoromethyl)phenyl]methanone], the “% Inhibition” value is given as 19%. In the case of `CSc1cccc(-c2ccnc3c(C(=O)c4ccccc4)cnn23)c1` [[7-[3-(methylthio)phenyl]pyrazolo[1,5-a]pyrimidin-3-yl]phenyl-methanone], the “% Inhibition” value was found to be 98%. As to `O=C(c1ccccc1)c1cnn2c(-c3ccccc3)ccnc12` [Phenyl(7-phenylpyrazolo[1,5-a]pyrimidin-3-yl)methanone], the “% Inhibition” value is recorded as 55%. Same read-out and setting: with `O=C(c1ccc(F)cc1)c1cnn2c(-c3ccccc3)ccnc12` [(4-fluorophenyl)(7-phenylpyrazolo[1,5-a]pyrimidin-3-yl)methanone] the figure was 42%; with `CC(=O)Nc1ccc(-c2ccnc3c(C(=O)c4ccccc4)cnn23)cc1` [N-[4-(3-Benzoylpyrazolo[1,5-a]pyrimidin-7-yl)phenyl]acetamide], 33%. Take `O=C(c1cccc(C(F)(F)F)c1)c1cnn2c(-c3ccco3)ccnc12` [[7-(2-furanyl)pyrazolo[1,5-a]pyrimidin-3-yl][3-(trifluoromethyl)phenyl]methanone]: the “% Inhibition” value came to 36%. As for `O=C(c1ccccn1)c1cnn2c(-c3cccs3)ccnc12` [2-pyridinyl[7-(2-thienyl)pyrazolo[1,5-a]pyrimidin-3-yl]methanone], the “% Inhibition” value was found to be 24%. In the case of `O=C(c1ccc(Cl)cc1)c1cnn2c(-c3cccnc3)ccnc12` [(4-chlorophenyl)[7-(3-pyridinyl)pyrazolo[1,5-a]pyrimidin-3-yl]methanone], the “% Inhibition” value is 87%. Still for that read-out and setting: the result for `N#Cc1ccc(-c2ccnc3c(C(=O)c4ccccc4)cnn23)cc1` [4-(3-benzoylpyrazolo[1,5-a]pyrimidin-7-yl)benzonitrile] reads 10%. On to `O=C(c1cccc(F)c1)c1cnn2c(-c3cccc(C(F)(F)F)c3)ccnc12` [(3-fluorophenyl)[7-[3-(trifluoromethyl)phenyl]pyrazolo[1,5-a]pyrimidin-3-yl]methanone], for which the “% Inhibition” value came to 96%. Regarding `Cc1nn2c(-c3cccc(C(F)(F)F)c3)ccnc2c1C(=O)c1ccccc1` [(2-methyl-7-[3-(trifluoromethyl)phenyl]pyrazolo[1,5-a]pyrimidin-3-yl)phenyl-methanone], the “% Inhibition” value was 54%. As for `Cc1cc(-c2cccnc2)n2ncc(C(=O)c3ccc(F)cc3)c2n1` [(4-fluorophenyl)[5-methyl-7-(3-pyridinyl)pyrazolo[1,5-a]pyrimidin-3-yl]methanone], the “% Inhibition” value is recorded as 25%. Consider `COc1cc(-c2ccnc3c(C(=O)c4ccccc4)cnn23)cc(OC)c1OC` [phenyl[7-(3,4,5-trimethoxyphenyl)pyrazolo[1,5-a]pyrimidin-3-yl]methanone], for which the “% Inhibition” value stood at 24%.

Broadly, the % Inhibition is the relative decrease from the control value, in per cent. Lower therefore signals little suppression.

For the origin of these results see patent US4521422A, “Aryl and heteroaryl[7-(aryl and heteroaryl)pyrazolo[1,5-a]pyrimidin-3-yl]methanones” (American Cyanamid Company, priority 1984, dated 1985).
